Source: patent publication US20100284925A1, “Small Molecule Intervention for Obesity” (priority 2006, published 2010)

Legend:
[1] = Diet-induced obese (DIO) C57BL/6J (B6) mice; type: in vivo
Experimental: FIG. 16. Effects of prieurianin in diet-induced obese C57Bl/6J mice. B6 mice were put on 60% kcal high fat diet for approximately 15 weeks and then divided into groups of 10 and were then treated with either 1 (green) or 3 (brown) mg/kg of prieurianin daily intraperitoneally for three weeks compared to untreated (blue) or vehicle-treated (red) controls.
FIG. 16A. Average weight changes of mice treated with prieurianin compared to controls through three weeks of treatment.
FIG. 16B. Average food consumption in B6 mice treated with prieurianin as in FIG. 16A.
FIG. 16C. Average weight changes in B6 mice treated with prieurianin on an “on-off” cyclical schedule for a total of 4 cycles described in the text. Results are the means S.E. of 10 animals per group, and the 3 mg/kg group with 20 mice.
The B6 mice were fed a 60% kcal high fat diet for approximately 15 weeks to gain weight and then treated with either 1 or 3 mg/kg of prieurianin intraperitoneally daily for 3 weeks. Mice continued to have access to the 60% kcal diet ad libitum during treatment.
To circumvent the problem of drug induced tolerance, a new protocol was developed where prieurianin treatment was stopped with the DIO mice, and the mice continued to be maintained on the high fat 60% kcal diet. Four weeks later, the mice were treated again with the following protocol: either 3 mg/kg of prieurianin for 5 days and followed by 5 days of drug holiday (no treatment), with the treatment repeated for 3 more cycles; or 5 mg/kg of prieurianin for 3 days and followed by 5 days of drug holiday, with the treatment repeated for 3 more cycles.

[2] = tested on: differentiated NIH-3T3/L1 adipocytes; assay: Loss of lipid-positive differentiated adipocytes (oil red O, A510; Nile Red); type: cell-based
Experimental: FIG. 8. Prieurianin induced loss of differentiated adipocytes. NIH-3T3/L1 preadipocytes were induced into differentiation. Five days following differentiation, cells were treated with various concentrations (0.5, 1, and 2 μM) of prieurianin for an additional five days and followed by staining with oil red O. Micrographs were obtained from representatives of triplicate experiments. Isopropanol extracts of positively stained cells were quantified spectrophotometrically at 510 nm as shown in histogram on the right. Results are means±S.E. of triplicate experiments.
FIG. 19. Effects of bufalin on preadipocyte differentiation, and dedifferentiation/delipidation in adipo-cytes. NIH-3T3/L1 cells were induced into differentiation and simultaneously treated with either 1 μM of bufalin or 2 μM of prieurianin. Differentiated cells were stained with Nile Red. Alternatively, preadipocytes were induced into differentiation and five days following differentiation, cells were treated with either 1 μM of bufalin or 2 μM of prieurianin for an additional five days and followed by staining with Nile Red. Stained cells were evaluated by fluorescence microscopy.
To assess whether prieurianin has any effect on the differentiated adipocytes, the preadipocytes were allowed to differentiate into adipocytes and then were further cultured for about five days before treating the adipocytes with prieurianin for an additional five to six days, followed by oil red O staining for the presence of lipid accumulating adipocytes.

adiponectin = assay: Adiponectin release into conditioned media (Western blot); type: cell-based
Experimental: FIG. 10. Release of adiponectin and PLTP by preadipocytes and adipocytes, and in serum of normal mice. Preadipocytes (B and D) were treated with 2 μM of prieurianin and media collected after 36 hrs for Western blot analysis of either adiponectin (A and B) or PLTP (C and D). Alternatively, five days following differentiation, conditioned media of adipocyets (A and C) were collected for Western analysis. E. Serum of normal C57BL/6J mice given prieurianin or topotecan (0, 2, 5, and 10 mg/kg) was analyzed by Western blot for PLTP.
Adipose tissue contains various types of cells including preadipocytes and adipocytes. Also, preadipocytes secrete factors involved in their own differentiation. Once differentiated, the mature adipocytes acquire the ability to communicate distally with other organs including brain, liver, and skeletal muscle and locally with other cells such as preadipocytes, endothelial cells and monocytes/macrophages by secreting leptin and adiponectin. In addition, anti-adipogenic cytokines prevent the release of adiponectin by preadipocytes. Thus, the production of adiponectin and PLTP by preadipocytes and adipocytes was assessed.

NIH-3T3/L1 preadipocytes = assay: Proliferation of NIH-3T3/L1 preadipocytes (daily cell counting); type: cell-based
Experimental: FIG. 6. Inhibition of NIH-3T3/L1 preadipocytes proliferation by prieurianin. Cells were treated with various concentrations (0.5, 1, and 2 μM) of prieurianin and growth was assessed by counting daily for 7 days. Results are means±S.E. of triplicate experiments.

[3] = Observation of overt toxicity in treated animals; type: in vivo; details: animals given the drug for the duration of the experiments
[4] = tested on: 20-hydroxyecdysone activity; details: drosophila cells in culture; cited from earlier work
[5] = Body weight, food intake, serum parameters and adiposity in normal C57BL/6J mice; type: in vivo
Experimental: FIG. 4. Effects of prieurianin on blood insulin, glucose and NEFA levels. Normal and ob/ob mice were treated with 5 mg/kg of prieurianin and serum samples were then collected for (FIG. 4A) insulin; (FIG. 4B) glucose; and (FIG. 4C) non-esterified fatty acid (NEFA) profiling. Results are means of three animals per group for each treatment. Blue column, normal C57BL/6J; and red column, leptin-deficient ob/ob mice.
Prieurianin was administered intraperitoneally to 12-14 week-old normal C57BL/6J mice and the genetically leptin-deficient ob/ob mice (2 or 5 mg/kg) twice a week for two weeks. Controls received equivolume injections of drug vehicle. Body weight and food intake were measured every three days, and blood samples were collected at the end of the experiment.
Obesity contributes to hypertension, high serum cholesterol, low HDL cholesterol, and hyperglycemia, thus potentially leading to higher risk of cardiovascular disease. Abdominal obesity especially correlates with metabolic risk factors. The leptin-deficient ob/ob mice are hyperlipidemic, and hyperglycemic. To test whether prieurianin altered the metabolic or endocrinological parameters in addition to appetite, the serum lipid profile, insulin and glucose levels were measured.
To further examine the effects of prieurianin on the adiposity of the normal C57BL/6J and the ob/ob mice, we measured their visceral and subcutaneous body fat.

For C=C1[C@@H]([C@@]2(C)[C@@H](OC(C)=O)CC(=O)O[C@](C)(COC(C)=O)[C@@H]2C(=O)OC)[C@@H](OC=O)[C@H](OC(=O)[C@H](O)[C@H](C)CC)[C@@]2(C)[C@H](c3ccoc3)CC(=O)[C@]12O [prieurianin], the “decrease in food consumption” value ([1]; 1 or 3 mg/kg i.p. daily) was 70-80%, the “weight loss of total body weight” value ([1]; 1 or 3 mg/kg i.p. daily, within seven days of treatment) was “up to 10%” and the “body weight course after attained weight loss” value ([1]; daily treatment for 3 weeks) was “gradual increase in body weight after week two”. The “decrease in body weight” value ([1]; on-off cyclical schedule, 3 or 5 mg/kg, 4 cycles) was “up to 20%”, the “reduction of food consumption” value ([1]; on-off cyclical treatment protocol) was “approximately 40%” and the “number of lipid positive cells (oil red O stain A510 absorbance)” value ([2]; 2 μM) was “almost absent and reduced to a level comparable to the undifferentiated control”. The “number of oil red O stained cells” value ([2]; adipocytes treated five days after differentiation, 0.5, 1 and 2 μM) was “profound dose-dependent reduction in the number of oil red O stained cells”, the “adiponectin release by preadipocytes” value (adiponectin; NIH-3T3/L1 preadipocytes, approximately 36 hrs after treatment) was “inhibition of adiponectin release” and the “adiponectin production and release in differentiated adipocytes” value (adiponectin; differentiated adipocytes) was “induced the production and release of high molecular weight form, as well as a modest increase in the secretion of total adiponectin”. For the same compound, the proliferation of preadipocytes (NIH-3T3/L1 preadipocytes; 0.5, 1 and 2 μM, 7 days) was “inhibited the proliferation of the NIH-3T3/L1 preadipocytes in a dose-dependent manner”, the inhibition at 2 µM (NIH-3T3/L1 preadipocytes; Mus musculus, NIH3T3, 168 h, 2 μM, day 7) was 50% and the overt toxicity [3] was “no overt toxicity was observed”. For the same compound, the “antagonism against 20-hydroxyecdysone activity” value [4] was “antagonism against 20-hydroxyecdysone activity”, the food intake ([5]; normal C57BL/6J mice) was “reduced food intake” and the glucose levels ([5]; normal C57BL/6J mice) was “did not alter the insulin or the glucose levels significantly”. The insulin levels ([5]; normal C57BL/6J mice) was “did not alter the insulin or the glucose levels significantly”, the “serum PLTP activity” value ([5]; normal C57BL/6J mice) was “increase in serum PLTP activity” and the body weight ([5]; normal C57BL/6J mice, 2 or 5 mg/kg i.p. twice a week, two weeks) was “modest body weight loss”. For the same compound, the percent body fat ([5]; normal C57BL/6J mice, any dose) was “not significantly altered”, the NEFA levels ([5]; normal mice) was “decrease in NEFA levels” and the leptin levels ([5]; normal mice) was “decrease in leptin levels”. The HDL levels ([5]; normal mice, serum) was “remained relatively unchanged”, the total cholesterol level ([5]; normal mice, serum) was “remained relatively unchanged” and the triglyceride levels ([5]; normal mice, serum) was “no significant changes”.
